# Test results taken from publication PMC10999543, “Identification of kinase modulators as host-directed therapeutics against intracellular methicillin-resistant Staphylococcus aureus” (Frontiers in Cellular and Infection Microbiology, 2024).
# Like-named read-outs stand apart in the source and are kept apart here.
# Experiments:
# HeLa cells = experiment: Compound screen by flow cytometry: HeLa cell count as surrogate readout of cell viability (z-scoreHeLa); type: cell-based, human; conditions: for cell count rep 1 / z-scoreHeLa rep 1: replicate 1; for cell count rep 2 / z-scoreHeLa rep 2: replicate 2; for cell count rep 3 / z-scoreHeLa rep 3: replicate 3; for z-scoreHeLa mean: mean of 3 replicates; for all read-outs here: test concentration or dose not given here
# Method in brief: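 The viability surrogate was the count of fixed HeLa cells by flow cytometry, converted to z-scores against DMSO controls with values deviating two-fold excluded. Before counting, cells had been infected with MRSA for 1 h and cleared of extracellular bacteria with gentamicin. They were then exposed overnight to kinase inhibitors in triplicate.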
# intracellular MRSA = type: cell-based, Staphylococcus aureus; conditions: for %GFP+ rep 1 / z-scoreMRSA+ rep 1: replicate 1; for %GFP+ rep 2 / z-scoreMRSA+ rep 2: replicate 2; for %GFP+ rep 3 / z-scoreMRSA+ rep 3: replicate 3; for z-scoreMRSA+ mean: mean of 3 replicates; for %GFP+ rep 1: test concentration or dose not given here; for %GFP+ rep 2: test concentration or dose not given here; for %GFP+ rep 3: test concentration or dose not given here; for effect: test concentration or dose not given here; for z-scoreMRSA+ mean: test concentration or dose not given here; for z-scoreMRSA+ rep 1: test concentration or dose not given here; for z-scoreMRSA+ rep 2: test concentration or dose not given here; for z-scoreMRSA+ rep 3: test concentration or dose not given here
# Method in brief: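 Values are z-scores: GFP-positive HeLa percentage and event count per well against plate statistics, minus the mean DMSO z-score. Wells deviating two-fold from controls were left out of plate means. Infection was at a mean MOI of 6.8, with an overnight compound exposure.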
# [1] = PKIS compound screen raw data, HeLa cell count
# [2] = compound screen, HeLa cell count
# [3] = PKIS compound screen raw data, MRSA-infected HeLa cells
# [4] = Yes/No: effect without cell death
# [5] = compound screen, MRSA-infected HeLa cells
# [6] = PKIS compound screen, Yes/No call
# [7] = PKIS compounds raw data, HeLa cell count
# [8] = PKIS compound screen, Yes/No call (effect without cell death)
# [9] = PKIS compounds raw data, MRSA-infected HeLa cells
# [10] = PKIS compound screen, HeLa cell count
# [11] = PKIS compound screen, MRSA-infected HeLa cells
structure (smiles),measurement,setting,value
O=c1cc(N2CCOCC2)nc2n(Cc3cccc(Cl)c3)ccn12 [GSK2296823A],cell count rep 1,HeLa cells; [1],36512
same,cell count rep 2,HeLa cells; [1],34515
same,cell count rep 3,HeLa cells; [1],25382
same,cell death,HeLa cells; Yes/No call from z-scoreHeLa,No
same,z-scoreHeLa mean,HeLa cells; [2],1.30
same,z-scoreHeLa rep 1,HeLa cells; [2],1.07
same,z-scoreHeLa rep 2,HeLa cells; [2],1.58
same,z-scoreHeLa rep 3,HeLa cells; [2],1.26
same,%GFP+ rep 1,intracellular MRSA; [3],13.9%
same,%GFP+ rep 2,intracellular MRSA; [3],14.9%
same,%GFP+ rep 3,intracellular MRSA; [3],15.7%
same,effect,intracellular MRSA; Yes/No call from z-scoreMRSA+,No
same,hit,intracellular MRSA; [4],No
same,z-scoreMRSA+ mean,intracellular MRSA; [5],-1.35
same,z-scoreMRSA+ rep 1,intracellular MRSA; [5],-1.30
same,z-scoreMRSA+ rep 2,intracellular MRSA; [5],-1.23
same,z-scoreMRSA+ rep 3,intracellular MRSA; [5],-1.51
CCn1c(-c2nonc2N)nc2c(C#CC(C)(C)O)nc(OC[C@H](N)c3ccccc3)cc21 [GSK943949A],cell count rep 1,HeLa cells; [1],779
same,cell count rep 2,HeLa cells; [1],847
same,cell count rep 3,HeLa cells; [1],431
same,cell death,HeLa cells; Yes/No call from z-scoreHeLa,No
same,z-scoreHeLa mean,HeLa cells; [2],-2.76
same,z-scoreHeLa rep 1,HeLa cells; [2],-2.58
same,z-scoreHeLa rep 2,HeLa cells; [2],-2.66
same,z-scoreHeLa rep 3,HeLa cells; [2],-3.04
same,%GFP+ rep 1,intracellular MRSA; [3],19.2%
same,%GFP+ rep 2,intracellular MRSA; [3],16.3%
same,%GFP+ rep 3,intracellular MRSA; [3],15.7%
same,effect,intracellular MRSA; Yes/No call from z-scoreMRSA+,No
same,hit,intracellular MRSA; [4],No
same,z-scoreMRSA+ mean,intracellular MRSA; [5],-1.63
same,z-scoreMRSA+ rep 1,intracellular MRSA; [5],-1.42
same,z-scoreMRSA+ rep 2,intracellular MRSA; [5],-1.53
same,z-scoreMRSA+ rep 3,intracellular MRSA; [5],-1.95
c1ccc(Cc2nc3ccc(Nc4ncnc5ccccc45)cc3[nH]2)cc1 [GR269666A],cell death,HeLa cells; [6],No
same,z-scoreHeLa mean,HeLa cells; PKIS compound screen,0.30
same,z-scoreHeLa rep 1,HeLa cells; PKIS compound screen,0.10
same,z-scoreHeLa rep 2,HeLa cells; PKIS compound screen,0.40
same,z-scoreHeLa rep 3,HeLa cells; PKIS compound screen,0.42
same,cell count rep 1,HeLa cells; [7],4886
same,cell count rep 2,HeLa cells; [7],4795
same,cell count rep 3,HeLa cells; [7],7830
same,effect,intracellular MRSA; [6],No
same,hit,intracellular MRSA; [8],No
same,z-scoreMRSA+ mean,intracellular MRSA; PKIS compound screen,0.046
same,z-scoreMRSA+ rep 1,intracellular MRSA; PKIS compound screen,0.07
same,z-scoreMRSA+ rep 2,intracellular MRSA; PKIS compound screen,0.77
same,z-scoreMRSA+ rep 3,intracellular MRSA; PKIS compound screen,-0.71
same,%GFP+ rep 1,intracellular MRSA; [9],13.4%
same,%GFP+ rep 2,intracellular MRSA; [9],15.8%
same,%GFP+ rep 3,intracellular MRSA; [9],13.5%
O=S(=O)(c1cccc(F)c1)c1ccc(Nc2ncnc3cc(Br)sc23)cc1Cl [GSK306886A],cell count rep 1,HeLa cells; [7],2697
same,cell count rep 2,HeLa cells; [7],1761
same,cell count rep 3,HeLa cells; [7],5093
same,cell death,HeLa cells; Yes/No call from z-scoreHeLa,No
same,z-scoreHeLa mean,HeLa cells; [2],-1.56
same,z-scoreHeLa rep 1,HeLa cells; [2],-1.88
same,z-scoreHeLa rep 2,HeLa cells; [2],-1.89
same,z-scoreHeLa rep 3,HeLa cells; [2],-0.89
same,%GFP+ rep 1,intracellular MRSA; [9],13.2%
same,%GFP+ rep 2,intracellular MRSA; [9],13.8%
same,%GFP+ rep 3,intracellular MRSA; [9],13.0%
same,effect,intracellular MRSA; Yes/No call from z-scoreMRSA+,No
same,hit,intracellular MRSA; [4],No
same,z-scoreMRSA+ mean,intracellular MRSA; [5],-0.25
same,z-scoreMRSA+ rep 1,intracellular MRSA; [5],0.00934
same,z-scoreMRSA+ rep 2,intracellular MRSA; [5],0.10
same,z-scoreMRSA+ rep 3,intracellular MRSA; [5],-0.85
CC(C)c1nc(-c2ccc(F)c(NS(=O)(=O)c3c(F)cccc3F)c2)c(-c2ccnc(Nc3ccc(N4CCOCC4)nc3)n2)s1 [GSK1804250A],cell count rep 1,HeLa cells; [1],20970
same,cell count rep 2,HeLa cells; [1],16426
same,cell count rep 3,HeLa cells; [1],18426
same,z-scoreHeLa mean,HeLa cells; [10],-1.06
same,z-scoreHeLa rep 1,HeLa cells; [10],-1.56
same,z-scoreHeLa rep 2,HeLa cells; [10],-1.52
same,z-scoreHeLa rep 3,HeLa cells; [10],-0.10
same,cell death,HeLa cells; [6],No
same,cell death,"HeLa cells; PKIS compound screen, Yes/No call on z-scoreHeLa",No
same,z-scoreHeLa mean,HeLa cells; PKIS compound screen,-1.04
same,z-scoreHeLa rep 1,HeLa cells; PKIS compound screen,-1.27
same,z-scoreHeLa rep 2,HeLa cells; PKIS compound screen,-0.95
same,z-scoreHeLa rep 3,HeLa cells; PKIS compound screen,-0.90
same,cell count rep 1,HeLa cells; [7],3939
same,cell count rep 2,HeLa cells; [7],4582
same,cell count rep 3,HeLa cells; [7],4170
same,%GFP+ rep 1,intracellular MRSA; [3],10.3%
same,%GFP+ rep 2,intracellular MRSA; [3],10.8%
same,%GFP+ rep 3,intracellular MRSA; [3],13.4%
same,z-scoreMRSA+ mean,intracellular MRSA; [11],-2.25
same,z-scoreMRSA+ rep 1,intracellular MRSA; [11],-2.27
same,z-scoreMRSA+ rep 2,intracellular MRSA; [11],-2.35
same,z-scoreMRSA+ rep 3,intracellular MRSA; [11],-2.14
same,effect,intracellular MRSA; [6],No
same,hit,intracellular MRSA; [8],No and Yes
same,effect,"intracellular MRSA; PKIS compound screen, Yes/No call on z-scoreMRSA+",Yes
same,z-scoreMRSA+ mean,intracellular MRSA; PKIS compound screen,-0.36
same,z-scoreMRSA+ rep 1,intracellular MRSA; PKIS compound screen,-0.40
same,z-scoreMRSA+ rep 2,intracellular MRSA; PKIS compound screen,-0.43
same,z-scoreMRSA+ rep 3,intracellular MRSA; PKIS compound screen,-0.25
same,%GFP+ rep 1,intracellular MRSA; [9],25.0%
same,%GFP+ rep 2,intracellular MRSA; [9],23.8%
same,%GFP+ rep 3,intracellular MRSA; [9],25.9%
